Measured values taken from patent US20090264401A1, “SUBSTITUTED PYRIMIDIN-5-CARBOXAMIDES 281” (AstraZeneca AB, priority 2008, published 2009).

What follows are molecules tested against T1, human 11βHSD1 enzyme (Homo sapiens, UniProt P28845) (assay: 11βHSD1 cortisone to cortisol conversion, competitive HTRF assay). Conditions: human 11-βHSD; test concentration of 30 μM of compound.
T1 construct: baculovirus expressed N terminal 6-His tagged full length human 11βHSD1 enzyme; 6-His (N); made in house
Format: biochemical
How it was run: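 Enzyme was baculovirus-expressed, N-terminal 6-His-tagged full-length human 11βHSD1, purified on a copper chelate column. Compounds were added in buffer containing 1% DMSO at 10-fold final concentration.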

T1 sequence (P28845 whole entry): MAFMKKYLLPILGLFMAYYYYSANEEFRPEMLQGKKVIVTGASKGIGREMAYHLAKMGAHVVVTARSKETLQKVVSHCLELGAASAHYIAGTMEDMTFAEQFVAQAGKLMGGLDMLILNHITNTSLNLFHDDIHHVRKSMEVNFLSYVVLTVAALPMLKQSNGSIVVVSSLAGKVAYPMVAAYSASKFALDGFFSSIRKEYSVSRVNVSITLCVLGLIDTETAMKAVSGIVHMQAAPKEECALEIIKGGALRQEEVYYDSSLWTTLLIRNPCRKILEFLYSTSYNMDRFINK

| SMILES | inhibition at 30 µM |
| --- | --- |
| O=C(N[C@H]1C2CC3CC1C[C@@](O)(C3)C2)c1cnc(N2CCS(=O)(=O)CC2)nc1C1CCC1 [Example 83, 4-Cyclobutyl-2-(1,1-dioxo-1,4-thiazinan-4-yl)-N-[(2r,5s)-5-hydroxyadamantan-2-yl]pyrimidine-5-carboxamide] | 103% |
| O=C(N[C@H]1C2CC3CC1C[C@@](O)(C3)C2)c1cnc(N2CC(F)(F)C2)nc1C1CCCC1 [Example 146, 4-cyclopentyl-2-(3,3-difluoroazetidin-1-yl)-N-[(2r,5s)-5-hydroxyadamantan-2-yl]pyrimidine-5-carboxamide] | 93.4% |
| CNc1ncc(C(=O)N[C@H]2C3CC4CC2C[C@@](O)(C4)C3)c([C@H]2CCCO2)n1 [Example 167, N-[(2r,5s)-5-hydroxyadamantan-2-yl]-2-methylamino-4-[(2R)-oxolan-2-yl]pyrimidine-5-carboxamide] | 101% |
| O=C(N[C@H]1C2CC3CC1C[C@@](O)(C3)C2)c1cnc(N2CCSCC2)nc1C1CC1 [Example 35, 4-Cyclopropyl-N-[(2r,5s)-5-hydroxyadamantan-2-yl]-2-thiomorpholin-4-ylpyrimidine-5-carboxamide] | 106% |
| CCOc1nc(N2C[C@@H](C)O[C@@H](C)C2)ncc1C(=O)N[C@H]1C2CC3CC1C[C@@](O)(C3)C2 [Example 209, 2-[(2S,6R)-2,6-dimethylmorpholin-4-yl]-4-ethoxy-N-[(2r,5s)-5-hydroxyadamantan-2-yl]pyrimidine-5-carboxamide] | 99.4% |
| C[C@@H]1CN(c2ncc(C(=O)N[C@H]3C4CC5CC3C[C@@](O)(C5)C4)c(C3CC3)n2)C[C@@H](C)O1 [Example 63, 4-cyclopropyl-2-[(2R,6R)-2,6-dimethylmorpholin-4-yl]-N-[(2r,5s)-5-hydroxyadamantan-2-yl]pyrimidine-5-carboxamide] | 92.7% |
| O=C(N[C@H]1C2CC3CC1C[C@](O)(C3)C2)c1cnc(NC2CCCC2)nc1C1CCCC1 [Example 130, 4-cyclopentyl-2-(cyclopentylamino)-N-[(2r,5s)-5-hydroxyadamantan-2-yl]pyrimidine-5-carboxamide] | 96.1% |
| Cc1ncc(C(=O)N[C@H]2C3CC4CC2C[C@@](O)(C4)C3)c(OC(C)C)n1 [Example 202, N-[(2r,5s)-5-hydroxyadamantan-2-yl]-2-methyl-4-propan-2-yloxypyrimidine-5-carboxamide] | 102% |
| O=C(N[C@H]1C2CC3CC1C[C@@](O)(C3)C2)c1cnc(N2CCOCC2)nc1N1CCOCC1 [compound 32] | 97% |
| O=C(N[C@H]1C2CC3CC1C[C@@](O)(C3)C2)c1cnc(N2C[C@@H]3C[C@H]2CO3)nc1C1CCCC1 [Example 120, 4-cyclopentyl-N-[(2r,5s)-5-hydroxyadamantan-2-yl]-2-[(1S,4S)-2-oxa-5-azabicyclo[2.2.1]heptan-5-yl]pyrimidine-5-carboxamide] | 101% |
| Nc1ncc(C(=O)N[C@H]2C3CC4CC2C[C@@](O)(C4)C3)c(C2CCC2)n1 [Example 84, 2-Amino-4-cyclobutyl-N-[(2r,5s)-5-hydroxyadamantan-2-yl]pyrimidine-5-carboxamide] | 97.5% |
| O=C(N[C@H]1C2CC3CC1C[C@@](O)(C3)C2)c1cnc(NC2COC2)nc1C1CCC1 [Example 104, 4-cyclobutyl-N-[(2r,5s)-5-hydroxyadamantan-2-yl]-2-(oxetan-3-ylamino)pyrimidine-5-carboxamide] | 99.3% |
| CC(C)Nc1ncc(C(=O)N[C@H]2C3CC4CC2C[C@@](O)(C4)C3)c([C@H]2CCCO2)n1 [Example 171, N-[(2r,5s)-5-hydroxyadamantan-2-yl]-4-[(2R)-oxolan-2-yl]-2-(propan-2-ylamino)pyrimidine-5-carboxamide] | 103% |
| CS(=O)(=O)N1CCN(c2ncc(C(=O)N[C@H]3C4CC5CC3C[C@@](O)(C5)C4)c(C3CCCC3)n2)CC1 [Example 143, 4-cyclopentyl-N-[(2r,5s)-5-hydroxyadamantan-2-yl]-2-(4-methylsulfonylpiperazin-1-yl)pyrimidine-5-carboxamide] | 95% |
| O=C(NC1C2CC3CC(C2)CC1C3)c1cnc(N2CCOCC2)nc1C1CC1 (centres unmarked) [Example 13, N-(2-adamantyl)-4-cyclopropyl-2-morpholino-pyrimidine-5-carboxamide] | 112% |
| CC(C)Oc1nc(NC2CCC2)ncc1C(=O)N[C@H]1C2CC3CC1C[C@@](O)(C3)C2 [Example 217, 2-(cyclobutylamino)-N-[(2r,5s)-5-hydroxytricyclo[3.3.1.13,7]dec-2-yl]-4-(1-methylethoxy)pyrimidine-5-carboxamide] | 94.2% |
| O=C(N[C@H]1C2CC3CC1C[C@@](O)(C3)C2)c1cnc(OC2COC2)nc1C1CCC1 [Example 109, 4-cyclobutyl-N-[(2r,5s)-5-hydroxyadamantan-2-yl]-2-(oxetan-3-yloxy)pyrimidine-5-carboxamide] | 90.3% |

| SMILES | inhibition at 30 µM |
| --- | --- |
| C[C@@H]1CN(c2ncc(C(=O)N[C@H]3C4CC5CC3C[C@@](O)(C5)C4)c(C3CC3)n2)C[C@H](C)O1 [Example 42, 4-Cyclopropyl-2-(2,6-dimethylmorpholin-4-yl)-N-[(2r,5s)-5-hydroxyadamantan-2-yl]pyrimidine-5-carboxamide] | 99.4% |
| O=C(N[C@H]1C2CC3CC1C[C@@](O)(C3)C2)c1cnc(N2CC3CC2C[S+]3[O-])nc1C1CC1 (some centres unmarked) [Example 47, 4-Cyclopropyl-N-[(2r,5s)-5-hydroxyadamantan-2-yl]-2-(3-oxo-3 ?4-thia-6-azabicyclo[2.2.1]heptan-6-yl)pyrimidine-5-carboxamide] | 97.3% |
| C[C@@H]1CN(c2ncc(C(=O)N[C@H]3C4CC5CC3C[C@@](O)(C5)C4)c(C3CC(F)(F)C3)n2)C[C@H](C)O1 [Example 156, 4-(3,3-difluorocyclobutyl)-2-[(2S,6R)-2,6-dimethylmorpholin-4-yl]-N-[(2r,5s)-5-hydroxyadamantan-2-yl]pyrimidine-5-carboxamide] | 65.5% |
| O=C(N[C@H]1C2CC3CC1C[C@@](O)(C3)C2)c1cnc(OC2COC2)nc1C1CC1 [Example 78, 4-cyclopropyl-N-[(2r,5s)-5-hydroxyadamantan-2-yl]-2-(oxetan-3-yloxy)pyrimidine-5-carboxamide] | 93.1% |
| O=C(N[C@H]1C2CC3CC1C[C@@](O)(C3)C2)c1cnc(NCCO)nc1C1CC1 [Example 69, 4-cyclopropyl-N-[(2r,5s)-5-hydroxyadamantan-2-yl]-2-[(2-hydroxyethyl)amino]pyrimidine-5-carboxamide] | 102% |
| Cc1ncc(C(=O)N[C@H]2C3CC4CC2C[C@@](O)(C4)C3)c(C2CC(F)(F)C2)n1 [Example 153, 4-(3,3-difluorocyclobutyl)-N-[(2s,5r)-5-hydroxyadamantan-2-yl]-2-methylpyrimidine-5-carboxamide] | 91.7% |
| COc1ncc(C(=O)NC2C3CC4CC2CC(O)(C4)C3)c(C2(C)CC2)n1 (centres unmarked) [Example 187, N-[(2r,5 s)-5-hydroxyadamantan-2-yl]-2-methoxy-4-(1-methylcyclopropyl)pyrimidine-5-carboxamide] | 99% |
| CCCSc1nc(N2CCN(C(C)=O)CC2)ncc1C(=O)NC1C2CC3CC(C2)CC1C3 (centres unmarked) [Example 27, 2-(4-Acetylpiperazin-1-yl)-N-(2-adamantyl)-4-propylsulfanyl-pyrimidine-5-carboxamide] | 95.5% |
| O=C(N[C@H]1C2CC3CC1C[C@@](O)(C3)C2)c1cnc(N2CCCSCC2)nc1C1CC1 [Example 43, 4-Cyclopropyl-N-[(2r,5s)-5-hydroxyadamantan-2-yl]-2-(1,4-thiazepan-4-yl)pyrimidine-5-carboxamide] | 99.2% |
| C[C@@H]1CN(c2ncc(C(=O)N[C@H]3C4CC5CC3C[C@@](O)(C5)C4)c(C3CCC3)n2)C[C@@H](C)O1 [Example 101, 4-cyclobutyl-2-[(2R,6R)-2,6-dimethylmorpholin-4-yl]-N-[(2r,5s)-5-hydroxyadamantan-2-yl]pyrimidine-5-carboxamide] | 102% |
| COc1ncc(C(=O)N[C@H]2C3CC4CC2C[C@@](O)(C4)C3)c(C2CCCC2)n1 [Example 117, 4-cyclopentyl-N-[(2r,5s)-5-hydroxyadamantan-2-yl]-2-methoxypyrimidine-5-carboxamide] | 97.4% |
| O=C(N[C@H]1C2CC3CC1C[C@@](O)(C3)C2)c1cnc(N2CCC[S+]([O-])CC2)nc1C1CC1 (some centres unmarked) [Example 44, 4-Cyclopropyl-N-[(2r,5s)-5-hydroxyadamantan-2-yl]-2-(1-oxo-1,4-thiazepan-4-yl)pyrimidine-5-carboxamide] | 98% |
| C[C@@H]1CN(CCNc2ncc(C(=O)N[C@H]3C4CC5CC3C[C@@](O)(C5)C4)c(C3CC3)n2)C[C@H](C)O1 [Example 73, 4-cyclopropyl-2-({2-[(2R,6S)-2,6-dimethylmorpholin-4-yl]ethyl}amino)-N-[(2r,5s)-5-hydroxyadamantan-2-yl]pyrimidine-5-carboxamide] | 95.2% |
| Nc1ncc(C(=O)N[C@H]2C3CC4CC2C[C@@](O)(C4)C3)c(C2CCCC2)n1 [Example 135, 2-amino-4-cyclopentyl-N-[(2r,5s)-5-hydroxyadamantan-2-yl]pyrimidine-5-carboxamide] | 100% |
| O=C(N[C@H]1C2CC3CC1C[C@@](O)(C3)C2)c1cnc(NC2CCCC2)nc1C1CCC1 [Example 102, 4-cyclobutyl-2-(cyclopentylamino)-N-[(2r,5s)-5-hydroxyadamantan-2-yl]pyrimidine-5-carboxamide] | 93.8% |
| CNc1ncc(C(=O)N[C@H]2C3CC4CC2C[C@@](O)(C4)C3)c(C2CC2)n1 [Example 34, 4-Cyclopropyl-N-[(2r,5s)-5-hydroxyadamantan-2-yl]-2-methylaminopyrimidine-5-carboxamide] | 98% |

Same assay, conditions: recombinant N terminal 6-His tagged full length human 11βHSD1; cortisone 160 nM; 25 minutes at 37° C.

| SMILES | IC50 |
| --- | --- |
| O=C(N[C@H]1C2CC3CC1C[C@@](O)(C3)C2)c1cnc(N2CCOCC2)nc1N1CCOCC1 [compound 32] | 220 nM |
| O=C(NC1C2CC3CC(C2)CC1C3)c1cnc(N2CCOCC2)nc1C1CC1 (centres unmarked) [Example 13, N-(2-adamantyl)-4-cyclopropyl-2-morpholino-pyrimidine-5-carboxamide] | 14 nM |
